Measured values reported in US20220142165A1 (priority 2019, published 2022).

Key:
[1] = test system: tomato late blight pathogen (Phylophihora infeslans); test: whole plant or invertebrate; assay type: in vivo; conditions: Phytophthora infestans, 96 h, read-out: Control value
[2] = test system: grape downy mildew pathogen (Plasmopara viticola); test: Grape downy mildew control test (Test Example 2); assay type: in vivo; conditions: Plasmopara viticola, foliar, 168 h; 100 ppm by mass, sprayed on grape leaf disc (variety Chardonnay) before inoculation; blotch area ratio seven days after inoculation, 20° C.
Method: 5 parts by mass of the compound according to the present invention, 93.5 parts by mass of dimethylformamide, and 1.5 parts by mass of polyoxyethylene alkylaryl ether were mixed and dissolved to prepare an emulsion (I) containing 5% by mass of an active ingredient.
The control value was calculated according to the following formula.
Control value (%)=100−{blotch area ratio in treated area/blotch area ratio in untreated area}×100
Water was added to the emulsion (I) such that the concentration of the heterocyclic compound became 100 ppm by mass, and then the heterocyclic compound was dissolved therein to obtain a pharmaceutical solution. Then, the pharmaceutical solution was sprayed on a leaf disc of grape (variety “Chardonnay”) placed on agar in a 6-well plate. After air-drying, the leaf disc on which the pharmaceutical solution was sprayed was inoculated with zoosporangia of grape downy mildew pathogen (Plasmopara viticola) in a suspension by spraying the suspension thereon (treated area). As a control, a leaf disc on which no pharmaceutical solution was sprayed was inoculated in the same way as mentioned above (untreated area). The resultant leaf discs were left in a moist chamber at 20° C. Seven days after inoculation, the grape leaf discs were visually observed to measure the blotch area ratio to calculate the control value.

SMILES	pest or weed control at 125 ppm [1] [%]	pest or weed control at 100 ppm [2] [%]	melting point [°C]
CO/N=C/c1cc(C(Oc2ccc3ncsc3c2)c2nnco2)ncc1C#N (stereo not drawn) [b-40]	≥ 75	≥ 75	129 to 131
Fc1ccc(C(Oc2ccc3nnsc3c2)c2nnco2)nc1 (stereo not drawn) [b-10]	≥ 75	≥ 75	141 to 142
CO/N=C/c1cc(C(Oc2cc(Br)c3nc(C)sc3c2)c2nnco2)ncc1F (stereo not drawn) [b-42]	≥ 75	≥ 75	70 to 75
CO/N=C/c1cc(C(Oc2cc(OC)c3ncsc3c2)c2nnco2)ncc1F (stereo not drawn) [b-84]	≥ 75	≥ 75	103 to 104
C#CCO/N=C/c1ccnc(C(Oc2ccc3nc(C)sc3c2)c2nnco2)c1 (stereo not drawn) [b-26]	≥ 75	≥ 75	118 to 121
CO/N=C/c1cc(C(Oc2cc(C)c3nc(C)sc3c2)c2nnco2)ncc1F (stereo not drawn) [b-47]	≥ 75	≥ 75	151 to 154
CCc1cc(OC(c2cc(/C=N/OC)c(F)cn2)c2nnco2)cc2sc(C)nc12 (stereo not drawn) [b-46]	≥ 75	≥ 75	145 to 147
CCc1cc(OC(c2cc(/C=N/OC)c(F)cn2)c2nnco2)cc2scnc12 (stereo not drawn) [b-44]	≥ 75	≥ 75	114 to 117
CO/N=C/c1cc(C(Oc2cc(Cl)c3ncsc3c2)c2nnco2)ncc1F (stereo not drawn) [b-55]	≥ 75	≥ 75	153 to 154
CO/N=C/c1cc(C(Oc2ccc3nc(C4CC4)sc3c2)c2nnco2)ncc1F (stereo not drawn) [b-76]	≥ 75	≥ 75	103 to 104
CO/N=C/c1cc(C(Oc2ccc3nc(CF)sc3c2)c2nnco2)ncc1F (stereo not drawn) [b-66]	≥ 75	≥ 75	133 to 134
C=Cc1cc(OC(c2cc(/C=N/OC)c(F)cn2)c2nnco2)cc2sc(C)nc12 (stereo not drawn) [b-48]	≥ 75	≥ 75	116 to 119
CO/N=C/c1ccnc(C(Oc2cc(C)c3ncsc3c2)c2nnco2)c1 (stereo not drawn) [b-23]	≥ 75	≥ 75	146 to 148
CO/N=C/c1cc(C(Oc2ccc3ncsc3c2)c2nnco2)ncc1F (stereo not drawn) [b-15]	≥ 75	≥ 75	136 to 138
CO/N=C/c1ccnc(C(Oc2cc(F)c3ncsc3c2)c2nnco2)c1 (stereo not drawn) [b-22]	≥ 75	≥ 75	113 to 148
CO/N=C/c1cc(C(Oc2cc(F)c3ncsc3c2)c2nnco2)ncc1F (stereo not drawn) [b-45]	≥ 75	≥ 75	137 to 139
